# Values quoted from earlier work in patent publication US20240115666A1, “COMPOSITIONS AND METHODS FOR REDUCING GAMMA-GLUTAMYLTRANSFERASE LEVELS” (Lile Method Research, LLC, priority 2022, published 2024).
compound,measurement,value
"N[C@@H](CCC(=O)N[C@@H](CS)C(=O)NCC(=O)O)C(=O)O [glutathione, L-γ-glutamyl-L-cysteinylglycine]",half-life in the blood,seconds to minutes
